Source: US20120095022A1, “DERIVATIVES OF 10-AMINO-1,2,3,4-TETRAHYDROPYRIDO[2,1-A]ISOINDOL-6(10BH)-ONES, METHOD FOR PREPARATION THEREOF AND THERAPEUTIC USES THEREOF” (UNIVERSITE D'ORLEANS, priority 2009, published 2012)

What was measured:
NCI (lung) = assay: Cytotoxicity on human cells, automated nuclei counting: NCI; type: cell-based; conditions: exposed 24 h to 48 h, 0.1 to 25 μM
Procedure, shortened: (§1)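 Automated image analysis quantified cytotoxicity after cells, plated at 4.10^3 per well and grown 24 hours, were treated with increasing compound concentrations. DMSO vehicle never exceeded 1%.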

HCT 116 (colon) = assay: Cytotoxicity on human cells, automated nuclei counting: HCT 116; type: cell-based; conditions: HCT 116 cells, exposed 24 h to 48 h, 0.1 to 25 μM
Procedure, shortened: as §1

Caco (colon) = assay: Cytotoxicity on human cells, automated nuclei counting: Caco; type: cell-based; conditions: exposed 24 h to 48 h, 0.1 to 25 μM
Procedure, shortened: as §1

MDA-MB 231 (breast) = assay: Cytotoxicity on human cells, automated nuclei counting: MDA-MB 231; type: cell-based; conditions: MDA-MB 231 cells, exposed 24 h to 48 h, 0.1 to 25 μM
Procedure, shortened: as §1

GSK-3αβ = assay: GSK-3 kinase inhibition (GS-1 substrate); conditions: read-out: IC50 μM Kinases GSK3, buffer A, 30° C., 15 μM ATP
DYRK1A = DYRK1A (Homo sapiens, UniProt Q13627); assay: DYRK1A kinase inhibition (Woodtide substrate)
CDK5/D25 = target: T1, CDK5/D25 (Homo sapiens, UniProt Q00535); assay: CDK5 kinase inhibition (33P-ATP, histone H1); type: biochemical; conditions: buffer C, 30° C., 15 μM ATP, read-out: IC50 μM Kinases CDK5
T1 construct: made in house
T1 sequence (Q00535 whole entry): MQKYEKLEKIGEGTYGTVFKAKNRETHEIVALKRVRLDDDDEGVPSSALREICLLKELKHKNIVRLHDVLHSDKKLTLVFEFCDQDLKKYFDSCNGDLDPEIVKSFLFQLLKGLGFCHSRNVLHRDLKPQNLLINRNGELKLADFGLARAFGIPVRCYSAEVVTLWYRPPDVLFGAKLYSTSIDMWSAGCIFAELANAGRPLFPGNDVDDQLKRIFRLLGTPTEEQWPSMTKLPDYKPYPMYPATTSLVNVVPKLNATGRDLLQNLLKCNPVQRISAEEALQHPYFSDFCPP
T1 sequence (Q15078 99-307 partner limits assumed): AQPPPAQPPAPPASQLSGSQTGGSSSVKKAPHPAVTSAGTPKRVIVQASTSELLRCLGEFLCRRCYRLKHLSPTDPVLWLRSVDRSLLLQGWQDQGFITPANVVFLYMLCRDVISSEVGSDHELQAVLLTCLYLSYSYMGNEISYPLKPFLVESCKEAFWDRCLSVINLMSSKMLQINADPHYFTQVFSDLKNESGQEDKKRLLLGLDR
Procedure, shortened: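 Kinase reactions ran in buffer C (25 mM Mops pH 7.2, 15 mM MgCl2, 1 mM DTT, phosphatase inhibitors) with [33P]-ATP for 30 min at 30° C. Phosphorylated substrate was captured on P81 phosphocellulose filters, washed in phosphoric acid and counted by scintillation.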

fibroblast = assay: Cytotoxicity on human cells, automated nuclei counting: fibroblast; type: cell-based; conditions: exposed 24 h to 48 h, 0.1 to 25 μM
Procedure, shortened: as §1

PC3 (prostate) = assay: Cytotoxicity on human cells, automated nuclei counting: PC3; type: cell-based; conditions: PC-3, exposed 24 h to 48 h, 0.1 to 25 μM
Procedure, shortened: as §1

Huh7 (liver) = assay: Cytotoxicity on human cells, automated nuclei counting: Huh7; type: cell-based; conditions: Huh-7, exposed 24 h to 48 h, 0.1 to 25 μM
Procedure, shortened: as §1

SMILES | IC50 (NCI (lung)) | IC50 (HCT 116 (colon)) | melting point | IC50 (Caco (colon)) | IC50 (MDA-MB 231 (breast)) | IC50 (GSK-3αβ) | IC50 (DYRK1A) | IC50 (CDK5/D25) | IC50 (fibroblast) | IC50 (PC3 (prostate)) | IC50 (Huh7 (liver))
O=C(Nc1ccc(Br)cn1)Nc1cccc2c1C1CC3(CCN1C2=O)SCCS3 (centres unmarked) [Compound 31, 1-(5-Bromopyridin-2-yl)-3-(6′-oxo-3′,4′,6′,10b′-tetrahydro-1′H-spiro[[1,3]dithiolane-2,2′-pyrido[2,1-a]isoindole]-10′-yl)urea] | 1.5 µM | 1.2 µM | 240 °C | 5 µM | 4 µM | 0.068 µM | ≥ 10 µM | 7.3 µM | 8 µM | 3 µM | 0.8 µM
O=C1c2cccc(NC(=S)Nc3ncccc3Br)c2C2CC3(CCN12)SCCS3 (centres unmarked) [Compound 74, 1-(3-Bromopyridin-2-yl)-3-(6′-oxo-3′,4′,6′,10b′-tetrahydro-1′H-spiro[[1,3]dithiolane-2,2′-pyrido[2,1-a]isoindole]-10′-yl)thiourea] | 12 µM | 25 µM | 215 °C | 20 µM | > 25 µM | 3 µM | > 10 µM | > 10 µM | 25 µM | 15 µM | 10 µM
O=C1c2cccc(NC(=S)Nc3cc[nH]n3)c2C2CCCCN12 (centres unmarked) [Compound 64, 1-(6-Oxo-1,2,3,4,6,10b-hexahydropyrido[2,1-a]isoindol-10-yl)-3-(1H-pyrazol-3-yl)thiourea] | 25 µM | 20 µM | 208 °C | 20 µM | 25 µM | 16 µM | ≥ 100 µM | 56 µM | > 25 µM | 6 µM | 8 µM
O=C1c2cccc(NC(=S)Nc3cc[nH]n3)c2C2CC3(CCN12)SCCS3 (centres unmarked) [Compound 71, 1-(6′-Oxo-3′,4′,6′,10b′-tetrahydro-1′H-spiro[[1,3]dithiolane-2,2′-pyrido[2,1-a]isoindole]-10′-yl)-3-(1H-pyrazol-3-yl)thiourea] | 15 µM | 7 µM | 185 °C | 15 µM | 15 µM | > 10 µM | > 10 µM | > 10 µM | 25 µM | > 25 µM | 20 µM
O=C1c2cccc(NC(=S)Nc3ncccn3)c2C2CCCCN12 (centres unmarked) [Compound 65, 1-(6-Oxo-1,2,3,4,6,10b-hexahydropyrido[2,1-a]isoindol-10-yl)-3-(pyrimidin-2-yl)thiourea] | > 25 µM | > 25 µM | 212 °C | 20 µM | 25 µM | > 10 µM | ≥ 100 µM | > 10 µM | > 25 µM | > 25 µM | > 25 µM
O=C(Nc1cccc(Br)n1)Nc1cccc2c1C1CCCCN1C2=O (centres unmarked) [Compound 19, 1-(6-Bromopyridin-2-yl)-3-(6-oxo-1,2,3,4,6,10b-hexahydropyrido[2,1-a]isoindol-10-yl)urea] | > 25 µM | > 25 µM | 218 to 220 °C | > 25 µM | > 25 µM | 0.043 µM | 3.4 µM | 0.04 µM | > 25 µM | > 25 µM | > 25 µM
COC1CCN2C(=O)c3cccc(NC(=O)Nc4cnc(C)cn4)c3C2C1 (centres unmarked) [Compound 59, 1-(2-methoxy-6-oxo-1,2,3,4,6,10b-hexahydropyrido[2,1-a]isoindol-10-yl)-3-(5-methylpyrazin-2-yl)urea] | 6 µM | 3 µM | 140 to 142 °C | 12 µM | 6 µM | 0.14 µM | > 10 µM | 0.32 µM | 5 µM | 5 µM | 1.2 µM
O=C(Nc1ccc(Br)cn1)Nc1cccc2c1C1CCCCN1C2=O (centres unmarked) [Compound 18, 1-(5-Bromopyridin-2-yl)-3-(6-oxo-1,2,3,4,6,10b-hexahydropyrido[2,1-a]isoindol-10-yl)urea] | > 25 µM | > 25 µM | 225 °C | > 25 µM | > 25 µM | 0.076 µM | 21 µM | 0.13 µM | > 25 µM | > 25 µM | > 25 µM
O=C1c2cccc(NC(=S)Nc3ccccn3)c2C2CC3(CCN12)SCCS3 (centres unmarked) [Compound 70, 1-(6′-Oxo-3′,4′,6′,10b′-tetrahydro-1′H-spiro[[1,3]dithiolane-2,2′-pyrido[2,1-a]isoindole]-10′-yl)-3-(pyridin-2-yl)thiourea] | 10 µM | 2 µM | 142 °C | 2 µM | 3 µM | 2.5 µM | 22 µM | 19 µM | 20 µM | > 25 µM | 15 µM
O=C(Nc1cccc(Br)n1)Nc1cccc2c1C1CC3(CCN1C2=O)OCCO3 (centres unmarked) [Compound 47] | 20 µM | 6 µM | 184 to 186 °C | 12 µM | 20 µM | 0.89 µM | > 10 µM | > 10 µM | 20 µM | 6 µM | 8 µM
O=C(Nc1csc(-c2ccncc2)n1)Nc1cccc2c1C1CCCCN1C2=O (centres unmarked) [Compound 37, 1-(6-Oxo-1,2,3,4,6,10b-hexahydropyrido[2,1-a]isoindol-10-yl)-3-(2-(pyridin-4-yl)thiazol-4-yl)urea] | 4 µM | 0.7 µM | 152 °C | 1.5 µM | 1.5 µM | 0.13 µM | 2.4 µM | 1.7 µM | 3 µM | 1 µM | 2 µM
O=C(Nc1cccc(F)n1)Nc1cccc2c1C1CCCCN1C2=O (centres unmarked) [Compound 23, 1-(6-Fluoropyridin-2-yl)-3-(6-oxo-1,2,3,4,6,10b-hexahydropyrido[2,1-a]isoindol-10-yl)urea] | 0.3 µM | < 0.01 µM | 254 °C | 0.03 µM | 0.03 µM | 0.026 µM | 3.5 µM | 0.9 µM | 0.3 µM | 0.03 µM | 0.1 µM
O=C(Nc1cscn1)Nc1cccc2c1C1CCCCN1C2=O (centres unmarked) [Compound 26, 1-(6-Oxo-1,2,3,4,6,10b-hexahydropyrido[2,1-a]isoindol-10-yl)-3-(thiazol-4-yl)urea] | 5 µM | 0.8 µM | 178 to 180 °C | 0.8 µM | 0.4 µM | 0.76 µM | > 10 µM | 0.43 µM | 4 µM | 2 µM | 1.2 µM
